Columns and labels:
[1] = tested on: mTOR kinase activity (pS6/S6 levels); assay: Liver protein analysis in mice: pS6/S6; assay type: in vivo; conditions: Table 30; mouse liver 24 h; oligonucleotide 5 mg/kg (or PBS); Treatment AZD8055 5 mg/kg at 0, 12, 22 h
Experimental: The following experiments were performed to determine if the effects of autophagy modulators on antisense activity in vitro can be observed in vivo. […] Following administration of modified oligonucleotide, mice were administered 1% DMSO or 5 mg/kg AZD8055 in 1% DMSO at three time points over 24 hours: at the time of administration of the modified oligonucleotide, and 12 and 22 hours after administration of the modified oligonucleotide. A group of control mice was administered PBS at time 0 and 1% DMSO at 0, 12, and 22 hours. Mice were sacrificed at 24 hours after administration of the modified oligonucleotide and tissues were collected for analysis.
Protein analysis was carried out on liver tissue using standard procedures. All proteins were normalized to α-tubulin. […] The antibody against LC3B (ab48394) was purchased from Abcam. […] Antibody against P62 (GP62-C) was purchased from Progen.
Following administration of modified oligonucleotide, groups of mice were either allowed free access to chow (control) or fasted overnight (16 hr fast). Mice were sacrificed at 16 hours after administration of the modified oligonucleotide and tissues were collected for analysis.
A group of control mice was administered PBS at time 0 and 1% DMSO at 0, 12, and 22 hours. Mice were sacrificed at 24 hours after administration of the modified oligonucleotide and tissues were collected for analysis. […]

LC3B = assay: Liver protein analysis in mice: LC3B II/I ratio; assay type: in vivo; conditions: Table 30; mouse liver 24 h; oligonucleotide 5 mg/kg (or PBS); Treatment AZD8055 5 mg/kg at 0, 12, 22 h
Experimental: The following experiments were performed to determine if the effects of autophagy modulators on antisense activity in vitro can be observed in vivo. Groups of 3-4 8-week-old male C57bl/6J mice were administered 5 mg/kg control oligonucleotide 141923, or 5 mg/kg antisense oligonucleotide 399462. Following administration of modified oligonucleotide, mice were administered 1% DMSO or 5 mg/kg AZD8055 in 1% DMSO at three time points over 24 hours: at the time of administration of the modified oligonucleotide, and 12 and 22 hours after administration of the modified oligonucleotide. A group of control mice was administered PBS at time 0 and 1% DMSO at 0, 12, and 22 hours. Mice were sacrificed at 24 hours after administration of the modified oligonucleotide and tissues were collected for analysis.
Autophagy activation was confirmed in livers by determining suppression of mTOR kinase activity (pS6/S6 levels), determining an increased LC3B II/I ratio (a marker for the formation of autophagosomes), and determining p62 degradation (related to the clearance of autophagosomes). Protein analysis was carried out on liver tissue using standard procedures. All proteins were normalized to α-tubulin. Phospho-S6 Ribosomal Protein (Ser240/244) (2215S), and S6 Ribosomal Protein (2217S) antibodies were obtained from Cell Signaling Technology. The antibody against LC3B (ab48394) was purchased from Abcam. […]

COc1ccc(-c2ccc3c(N4CCOC[C@@H]4C)nc(N4CCOC[C@@H]4C)nc3n2)cc1CO [AZD8055]
pS6/S6 ratio [1]: 0.2 | LC3B II/I ratio (LC3B): 2.3
